Data as given in US12534496B2, “Polymorphic forms of Cyclo (-His-Pro) and methods of use to treat kidney disease” (NovMetaPharma Co., Ltd., priority 2018, dated 2026).
Several values for one entry are separate records, joined by “and”; a condition that tells them apart may be missing. Equal values may be shown once. Entries after “also recorded” stand apart in the source; their conditions may differ.

Assays:
Type in all cases: physicochemical
[1] = Dynamic vapor sorption (DVS) at 25 °C with post-DVS XRPD
Protocol: DVS was carried out by placing an approximately 10-20 mg sample into a mesh vapour sorption balance pan and loaded into a DVS Intrinsic Dynamic Vapour Sorption Balance by Surface Measurement Systems. The sample was subjected to a ramping profile from 40 to 90% relative humidity (RH) at 10% increments, maintaining the sample at each step until a stable weight had been achieved (dm/dt 0.004%, minimum step length 30 minutes, maximum step length 500 minutes) at 25° C. After completion of the sorption cycle, the sample was dried using the same procedure to 0% RH and then a second sorption cycle back to 40% RH. Two cycles were performed. The weight change during the sorption/desorption cycles were plotted, allowing for the hygroscopic nature of the sample to be determined. XRPD analysis was then carried out on any solid retained.
Approximately, 10-20 mg of sample was placed into a mesh vapor sorption balance pan and loaded into a DVS Intrinsic dynamic vapor sorption balance by Surface Measurement Systems. The sample was subjected to a ramping profile from 40-90% relative humidity (RH) at 10% increments, maintaining the sample at each step until a stable weight had been achieved (dm/dt 0.004%, minimum step length 30 minutes, maximum step length 500 minutes) at 25° C. After completion of the sorption cycle, the sample was dried using the same procedure to 0% RH and then a second sorption cycle back to 40% RH. Two cycles were performed. The weight change during the sorption/desorption cycles were plotted, allowing for the hygroscopic nature of the sample to be determined. XRPD analysis was then carried out on any solid retained.

[2] = GMP stability study of CHP anhydrate and CHP hydrate under accelerated conditions (total impurities); conditions: for Growth of total Impurities: 40 °C/75% RH
Protocol: CHP anhydrate (Pattern 1) and hydrate (Pattern 2) compounds were manufactured under GMP conditions. A stability study for the CHP anhydrate compound was conducted under ccelerated conditions (40±5° C./75±5% RH) for six months and room temperature conditions (25±5° C./60±5% RH) for 12 months. A further stability study for the CHP hydrate compound was conducted under accelerated conditions (40±5° C./75±5% RH) for 6 months (Table 18).

[3] = pH solubility assessment in buffers at 37 °C; conditions: 100 mg solid
Protocol: CHP patterns 1 and 2 were prepared for pH solubility assessment as follows: • 100 mg of CHP pattern 1 and pattern 2 were each weighed out into 4, 5 mL screw top glass vials; • 100 μL of a selected buffer, pre-heated to 37° C., was added to each vial; • Samples were heated to 37° C. in an incubator shaker for ca. 10 minutes after each volume of buffer and checked for sample dissolution.

[4] = Approximate solubility of CHP Pattern 1 by solvent addition technique
Protocol: The approximate solubility of CHP in 37 selected solvent systems (Table 13) was estimated by solvent addition technique. The following procedure was used: • Approximately 20 mg of CHP Pattern 1 was weighed out into each of 37vials. • Each solvent/solvent mixture was added to the appropriate vial in 5 volume aliquots (100 μL) until dissolution was observed or a maximum of 2 mL solvent was added. • In between additions, the sample was heated to 40° C. to check for dissolution at elevated temperature. • If 2 mL of solvent was added without dissolution of the material, solubility was calculated to be below 10 mg/mL. • After solvent addition, all 37 vials were placed in a fridge to crash cool between 2-8° C. for ca. 18 hours. • Any solids present were isolated by centrifuge filtration and analyzed by XRPD (where material amount allowed). • Where no solids were produced, vials were uncapped and left to evaporate at ambient temperature. • Any solids present were analyzed by XRPD (where material amount allowed).

[5] = pKa analysis via potentiometric acid/base titration
Protocol: pKa analysis was carried out on Pattern 1 via a potentiometric technique which is acid/base titration to determine the pKa point.

[6] = Solution state chemical stability in water/acetone and EtOH/water/MtBE (HPLC purity); conditions: 10 mg/ml; for Observation: up to 20 h
Protocol: Solution state chemical stability of the compound was studied in different solvent systems at different temperatures (Table 4). The solution was held at 50° C. and 80° C., and purity of the solution was tracked. The compound was generally stable for at least 20 hours.

O=C1N[C@@H](Cc2cnc[nH]2)C(=O)N2CCC[C@@H]12 [Pattern 1, Cyclo (-His-Pro)]
Post-DVS XRPD form ([1]; after DVS cycles at 25 °C): a new form, assigned as pattern 2; also recorded: re-crystallized to pattern 2 | DVS maximum uptake after conversion to Pattern 2 ([1]; between 0 and 90% RH, 25 °C): 0.8 wt % | DVS weight gain (change in mass) ([1]; from 60% RH to 90% RH, 25 °C): 6.3% | Growth of total Impurities ([2]; 0M): 0% | Growth of total Impurities ([2]; 1M): 0% | Growth of total Impurities ([2]; 3M, listed as CHP anhydrate (pattern 1)): 0.27% | Growth of total Impurities ([2]; 6M, listed as CHP anhydrate (pattern 1)): 0.53% | Water content reached by moisture absorption ([2]; during the stability study): 7% | μL for Dissolution at 37° C. ([3]; buffer pH 1): 300 µL | μL for Dissolution at 37° C. ([3]; buffer pH 4): 300 µL | μL for Dissolution at 37° C. ([3]; buffer pH 6.8): 300 µL | μL for Dissolution at 37° C. ([3]; buffer pH 7.2): 300 µL | Approximate Solubility ([4]; THF): ≤ 10000 µg/mL | Approximate Solubility ([4]; acetone): ≤ 10000 µg/mL | Approximate Solubility ([4]; acetonitrile): ≤ 10000 µg/mL | Approximate Solubility ([4]; water): ≥ 200000 µg/mL | Approximate Solubility ([4]; water:acetone [90:10]): ≥ 200000 µg/mL | pKa [5]: 6.4 and 6.38 | Purity (a %) ([6]; (EtOH:H2O = 9:1):MTBE = 1:3 (v/v), 50 °C, 0 h): 99.82% | Purity (a %) ([6]; (EtOH:H2O = 9:1):MTBE = 1:3 (v/v), 50 °C, 2 h): 99.77% | Purity (a %) ([6]; (EtOH:H2O = 9:1):MTBE = 1:3 (v/v), 50 °C, 20 h): 99.82% | Observation ([6]; (EtOH:H2O = 9:1):MTBE = 1:3 (v/v), 50 °C): No change | Purity (a %) ([6]; EtOH:H2O = 9:1 (v/v), 50 °C, 0 h): 99.76% | Purity (a %) ([6]; EtOH:H2O = 9:1 (v/v), 50 °C, 2 h): 99.86% | Purity (a %) ([6]; EtOH:H2O = 9:1 (v/v), 50 °C, 20 h): 99.69% | Observation ([6]; EtOH:H2O = 9:1 (v/v), 50 °C): No change | Purity (a %) ([6]; H2O, 80 °C, 0 h): 99.82% | Purity (a %) ([6]; H2O, 80 °C, 2 h): 99.77% | Purity (a %) ([6]; H2O, 80 °C, 20 h): 99.82% | Observation ([6]; H2O, 80 °C): No change | Purity (a %) ([6]; H2O:Acetone = 0.5:9.5 (v/v), 50 °C, 0 h): 99.77% | Purity (a %) ([6]; H2O:Acetone = 0.5:9.5 (v/v), 50 °C, 2 h): 99.72% | Purity (a %) ([6]; H2O:Acetone = 0.5:9.5 (v/v), 50 °C, 20 h): 99.73% | Observation ([6]; H2O:Acetone = 0.5:9.5 (v/v), 50 °C): No change
